≈ marks a conversion by molar mass, not a printed value. Where “and” joins values, the source holds several entries; their conditions need not be identical. Identical values can stand only once.
Columns and labels:
Test in all cases: ≥ marks a high value that may be exact or a test limit, other limits are often not marked, values filed in µg/mL are converted to µM
[1] = system: Klebsiella pneumoniae ATCC 13883
[2] = system: Staphylococcus aureus ATCC 25923
[3] = system: Escherichia coli DH5alpha
Bacillus subtilis = system: Bacillus subtilis
[4] = system: Staphylococcus aureus USA 300
[5] = system: Pseudomonas aeruginosa PAO1
[6] = system: Escherichia coli ATCC 25922
[7] = system: Staphylococcus aureus NCTC 8325
[8] = system: Candida albicans ATCC 90028
[9] = system: Salmonella enterica subsp. enterica serovar Typhimurium ATCC 14028
[10] = system: Acinetobacter baumannii ATCC 19606
Bacillus subtilis 168 = system: Bacillus subtilis 168
Micrococcus luteus = system: Micrococcus luteus
Staphylococcus aureus = system: Staphylococcus aureus

MIC [1] | MIC [5] | MIC [6] | MIC [7] | MIC [8] | Structure (SMILES) | also measured
3.1 µM (≈ 4.02 µg/mL) | > 25 µM | 3.1 µM (≈ 4.02 µg/mL) |  |  | CC(C)C[C@H](NC(=O)[C@H](C)NC(=O)[C@H](CCCCN)NC(=O)CNC(=O)[C@H](CC(C)C)NC(=O)[C@H](CC(C)C)NC(=O)[C@H](CO)NC(=O)[C@H](CC(C)C)NC(=O)[C@H](CC(C)C)NC(=O)[C@H](CO)NC(=O)[C@H](CC(C)C)NC(=O)[C@H](CC(C)C)NC(=O)CN)C(N)=O [GLLSLLSLLGKAL] | MIC [4]: 0.78 µM (≈ 1.01 µg/mL)
3.1 µM (≈ 6.51 µg/mL) | > 50 µM | 4.4 µM (≈ 9.25 µg/mL) |  |  | CC[C@H](C)[C@H](NC(=O)[C@H](CCCCN)NC(=O)[C@H](CCC(N)=O)NC(=O)[C@@H](NC(=O)[C@@H](NC(=O)[C@H](CCCCN)NC(=O)[C@H](CCCN=C(N)N)NC(=O)[C@H](Cc1ccccc1)NC(=O)CN)[C@@H](C)CC)C(C)C)C(=O)N[C@@H](CCCN=C(N)N)C(=O)N[C@@H](CC(=O)O)C(=O)N[C@@H](Cc1ccccc1)C(=O)N[C@@H](CC(C)C)C(=O)N[C@@H](CCCN=C(N)N)C(=O)N[C@@H](CC(N)=O)C(=O)N[C@@H](CC(C)C)C(=O)N[C@H](C(N)=O)C(C)C [GFRKIVQKIRDFLRNLV] | MIC [4]: 3.1 µM (≈ 6.51 µg/mL)
 |  |  | 8 µM (≈ 20.2 µg/mL) | ≥ 35 µM | CC[C@H](C)[C@@H]1NC(=O)[C@H](CC(C)C)NC(=O)[C@@H](NC(=O)[C@H](CC(C)C)NC(=O)[C@H](CC(C)C)NC(=O)[C@H](CCCCN)NC(=O)[C@@H]2CCCN2C(=O)CNC(=O)[C@H](CC(C)C)NC(=O)[C@@H](NC(=O)[C@H](C)NC(=O)[C@H](C)NC(=O)[C@H](CC(C)C)NC(=O)[C@H](CO)NC(=O)[C@H](C)NC(=O)[C@H](CC(C)C)NC(=O)[C@@H](NC(=O)[C@@H]2CCCN2C(=O)[C@H](CC(C)C)NC(=O)[C@@H](N)Cc2ccccc2)[C@@H](C)CC)[C@@H](C)O)CSSC[C@@H](C(=O)O)NC(=O)[C@H](CCCCN)NC(=O)[C@H](CCCCN)NC(=O)[C@H]([C@@H](C)O)NC1=O [FLPILASLAATLGPKLLCLITKKC] | 
 |  | 25 µM (≈ 66.2 µg/mL) | 12.5 µM (≈ 33.1 µg/mL) |  | CC[C@H](C)[C@H](NC(=O)[C@H](CCCCN)NC(=O)[C@@H]1CCCN1C(=O)[C@H](CC(C)C)NC(=O)[C@H](Cc1ccccc1)NC(=O)[C@H](CC(N)=O)NC(=O)[C@H](C)NC(=O)[C@H](C)NC(=O)[C@H](CC(C)C)NC(=O)CNC(=O)[C@H](C)NC(=O)[C@H](CC(C)C)NC(=O)[C@H](CC(C)C)NC(=O)[C@@H]1CCCN1C(=O)[C@H](CC(C)C)NC(=O)[C@@H](N)Cc1ccccc1)C(=O)N[C@@H](Cc1ccccc1)C(=O)N[C@H]1CSSC[C@@H](C(=O)O)NC(=O)[C@H](CCCCN)NC(=O)[C@H](CCCCN)NC(=O)[C@H]([C@@H](C)O)NC(=O)[C@H]([C@@H](C)CC)NC(=O)[C@H](CCCCN)NC1=O [FLPLLAGLAANFLPKIFCKITKKC] | 
30 µM (≈ 51.2 µg/mL) | 20.7 µM and 23.7 µM | 7.3 µM and 8.9 µM |  |  | CC(C)C[C@H](NC(=O)[C@H](CCCCN)NC(=O)[C@H](CCCCN)NC(=O)[C@H](C)NC(=O)[C@H](Cc1c[nH]c2ccccc12)NC(=O)CNC(=O)[C@H](CCCCN)NC(=O)[C@@H](N)CCCCN)C(=O)N[C@@H](C)C(=O)N[C@@H](Cc1ccccc1)C(=O)N[C@@H](C)C(=O)N[C@@H](Cc1ccccc1)C(=O)NCC(=O)N[C@@H](CCCCN)C(=O)N[C@@H](CCCCN)C(=O)O [KKGWAKKLAFAFGKK] | MIC [9]: 22.2 µM (≈ 37.9 µg/mL); MIC [2]: > 30 µM; MIC [10]: > 30 µM
 |  | 31.4 µM (≈ 62.5 µg/mL) |  |  | CC[C@H](C)[C@H](NC(=O)[C@H](Cc1ccccc1)NC(=O)[C@H](CCCCN)NC(=O)[C@H](CCCCN)NC(=O)[C@H](CCC(=O)O)NC(=O)[C@H](CC(N)=O)NC(=O)[C@H](Cc1ccc(O)cc1)NC(=O)[C@H](CCCCN)NC(=O)[C@H](CC(N)=O)NC(=O)[C@H](CC(C)C)NC(=O)[C@H](CCC(=O)O)NC(=O)[C@H](CC(N)=O)NC(=O)[C@H](CC(C)C)NC(=O)[C@H](Cc1ccccc1)NC(=O)[C@H](CO)NC(=O)[C@@H](N)[C@@H](C)O)C(=O)O [TSFLNELNKYNEKKFI] | MIC (Bacillus subtilis 168): 15.7 µM (≈ 31.2 µg/mL); MIC (Micrococcus luteus): 31.4 µM (≈ 62.5 µg/mL); MIC (Staphylococcus aureus): 4.17 µM (≈ 8.3 µg/mL)
 |  | 26 µM (≈ 67.4 µg/mL) | 9 µM (≈ 23.3 µg/mL) | 6 µM (≈ 15.5 µg/mL) | CC[C@H](C)[C@@H]1NC(=O)[C@H](C)NC(=O)[C@@H](NC(=O)[C@H](Cc2ccccc2)NC(=O)[C@@H](NC(=O)[C@H](CCCCN)NC(=O)[C@@H]2CCCN2C(=O)[C@H](CC(C)C)NC(=O)[C@H](Cc2ccccc2)NC(=O)[C@H](CC(N)=O)NC(=O)[C@H](C)NC(=O)[C@H](C)NC(=O)[C@H](CC(C)C)NC(=O)CNC(=O)[C@H](C)NC(=O)[C@@H](NC(=O)[C@H](CC(C)C)NC(=O)[C@@H]2CCCN2C(=O)[C@H](CC(C)C)NC(=O)[C@@H](N)Cc2ccccc2)[C@@H](C)CC)[C@@H](C)CC)CSSC[C@@H](C(=O)O)NC(=O)[C@H](CCCCN)NC(=O)[C@H](CCCCN)NC(=O)[C@H]([C@@H](C)O)NC1=O [FLPLIAGLAANFLPKIFCAITKKC] | 

Second part, the molecule before the results:

Structure (SMILES) | MIC [1] | MIC [5] | MIC [6] | MIC [7] | MIC [8] | also measured
CC[C@H](C)[C@@H]1NC(=O)CNC(=O)[C@H](Cc2c[nH]c3ccccc23)NC(=O)[C@@H]2CSSC[C@H](NC(=O)[C@H](C)N)C(=O)N[C@@H](CCC(N)=O)C(=O)N[C@@H](Cc3ccccc3)C(=O)N[C@@H](Cc3c[nH]c4ccccc34)C(=O)N[C@@H](CO)C(=O)N[C@H]3CSSC[C@H](NC(=O)[C@H](Cc4ccc(O)cc4)NC(=O)[C@H](CCCCN)NC(=O)[C@H](Cc4ccc(O)cc4)NC(=O)[C@H](CCC(N)=O)NC1=O)C(=O)N[C@@H](CCC(N)=O)C(=O)N[C@H](C(=O)N[C@@H](CCC(N)=O)C(=O)O)CSSC[C@H](NC(=O)[C@H](CO)NC(=O)[C@H](CO)NC(=O)[C@H](CC(N)=O)NC3=O)C(=O)N[C@@H]([C@@H](C)CC)C(=O)N[C@@H](CO)C(=O)N[C@@H](CCCN=C(N)N)C(=O)NCC(=O)N[C@@H](Cc1ccc(O)cc1)C(=O)N[C@@H](CCCN=C(N)N)C(=O)N[C@@H](CCC(N)=O)C(=O)NCC(=O)N[C@@H](Cc1ccc(O)cc1)C(=O)N2 [ACQFWSCNSSCISRGYRQGYCWGIQYKYCQCQ] | 13.1 µM (≈ 49.9 µg/mL) |  |  |  |  | MIC [2]: > 13.1 µM; MIC [3]: 13.1 µM (≈ 49.9 µg/mL); MIC (Bacillus subtilis): 13.1 µM (≈ 49.9 µg/mL)
CC[C@H](C)[C@H](NC(=O)[C@H](C)NC(=O)[C@@H]1CCCN1C(=O)[C@H](CC(C)C)NC(=O)[C@@H](N)Cc1ccccc1)C(=O)N[C@@H](C)C(=O)NCC(=O)N[C@H](C(=O)N[C@@H](C)C(=O)N[C@@H](C)C(=O)N[C@@H](CCCCN)C(=O)N[C@@H](Cc1ccccc1)C(=O)N[C@@H](CC(C)C)C(=O)N1CCC[C@H]1C(=O)N[C@@H](CCCCN)C(=O)N[C@H](C(=O)N[C@@H](Cc1ccccc1)C(=O)N[C@H]1CSSC[C@@H](C(=O)O)NC(=O)[C@H](CCCCN)NC(=O)[C@H](CCCCN)NC(=O)[C@H](CO)NC(=O)[C@H]([C@@H](C)CC)NC(=O)[C@H](C)NC1=O)[C@@H](C)CC)C(C)C [FLPAIAGVAAKFLPKIFCAISKKC] |  |  | 7 µM (≈ 17.7 µg/mL) | 3 µM (≈ 7.61 µg/mL) | 7 µM (≈ 17.7 µg/mL) | 
CC[C@H](C)[C@@H]1NC(=O)[C@H](CCCCN)NC(=O)[C@@H](NC(=O)[C@H](C)NC(=O)[C@@H](NC(=O)[C@H](CC(C)C)NC(=O)[C@H](CC(=O)O)NC(=O)[C@@H](NC(=O)CNC(=O)[C@H](CC(C)C)NC(=O)[C@H](CCCCN)NC(=O)[C@@H](NC(=O)[C@H](CC(C)C)NC(=O)[C@H](CC(=O)O)NC(=O)[C@H](CCCCN)NC(=O)CNC(=O)[C@H](CC(C)C)NC(=O)CNC(=O)[C@H](CCCCN)NC(=O)[C@H](CO)NC(=O)[C@H](C)NC(=O)[C@H](Cc2ccccc2)NC(=O)[C@H](CCCCN)NC(=O)[C@H](C)NC(=O)[C@H](C)NC(=O)CNC(=O)[C@H](CCCN=C(N)N)NC(=O)[C@H](CC(C)C)NC(=O)[C@@H](NC(=O)[C@H](CO)NC(=O)[C@H](Cc2ccccc2)NC(=O)[C@H](CC(C)C)NC(=O)CN)[C@@H](C)CC)[C@@H](C)O)C(C)C)C(C)C)CSSC[C@@H](C(=O)O)NC(=O)[C@H](CCC(N)=O)NC(=O)[C@H](CCCCN)NC(=O)[C@H](CO)NC1=O [GLFSILRGAAKFASKGLGKDLTKLGVDLVACKISKQC] |  |  | 1 µM (≈ 3.84 µg/mL) | 1 µM (≈ 3.84 µg/mL) | 29 µM (≈ 111 µg/mL) | 
CC(C)C[C@H](NC(=O)[C@H](CC(C)C)NC(=O)[C@H](CCCCN)NC(=O)[C@H](CC(C)C)NC(=O)CNC(=O)[C@H](CC(C)C)NC(=O)[C@H](CO)NC(=O)[C@H](CC(C)C)NC(=O)[C@H](CC(C)C)NC(=O)[C@H](CC(C)C)NC(=O)[C@H](CO)NC(=O)[C@H](CC(C)C)NC(=O)[C@@H](N)CCCCN)C(N)=O [KLSLLLSLGLKLL] | 25 µM (≈ 35.2 µg/mL) | > 25 µM | > 25 µM |  |  | MIC [4]: 1.6 µM (≈ 2.26 µg/mL)
CC[C@H](C)[C@H](NC(=O)CNC(=O)[C@H](C)NC(=O)[C@@H](NC(=O)[C@H](CC(=O)O)NC(=O)[C@H](CCCCN)NC(=O)[C@H](C)NC(=O)[C@H](C)NC(=O)CNC(=O)[C@H](CCCCN)NC(=O)[C@H](CC(C)C)NC(=O)[C@@H](NC(=O)[C@H](CC(=O)O)NC(=O)[C@H](CC(C)C)NC(=O)[C@H](CC(C)C)NC(=O)[C@H](CC(C)C)NC(=O)CN)[C@@H](C)O)[C@@H](C)CC)C(=O)N[C@@H](C)C(=O)N[C@@H](CC(C)C)C(=O)N[C@@H](CCC(=O)O)C(=O)N[C@@H](CCCCN)C(=O)N[C@@H](CC(C)C)C(=O)N[C@@H](CCCCN)C(=O)N[C@H]1CSSC[C@@H](C(=O)N[C@@H](CCCCN)C(=O)N2CCC[C@H]2C(=O)O)NC(=O)CNC(=O)[C@H]([C@@H](C)O)NC(=O)[C@H]([C@@H](C)CC)NC(=O)[C@H](CCCCN)NC1=O [GLLLDTLKGAAKDIAGIALEKLKCKITGCKP] |  |  | 19 µM (≈ 60.4 µg/mL) | ≥ 150 µM |  | 

Reference: DBAASP
